Data reported in ChEMBL document CHEMBL1201862, “PubChem BioAssay data set” (2004).
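The compound was tested at five concentrations on cells cultured in 96-well plates, with a 48-hour exposure period. The concentration for 50% growth inhibition is given as GI50.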 Activity calls are given as the source filed them. Cut-off read from the data, not from the text of the source: active = GI50 up to about 1.1 µM and inactive = higher.

What was measured:
Test in all cases: inhibition of tumour cell growth, NCI panel, 48 h
786-0 = test system: 786-0
A498 = test system: A498
A549 = test system: A549
ACHN = test system: ACHN
CAKI-1 = test system: CAKI-1
CCRF-CEM = test system: CCRF-CEM
COLO 205 = test system: COLO 205
DU-145 = test system: DU-145
EKVX = test system: EKVX
HCC 2998 = test system: HCC 2998
HCT-116 = test system: HCT-116
HCT-15 = test system: HCT-15
HL-60 = test system: HL-60
HOP-62 = test system: HOP-62
HOP-92 = test system: HOP-92
HT-29 = test system: HT-29
Hs-578T = test system: Hs-578T
IGROV-1 = test system: IGROV-1
K562 = test system: K562
KM12 = test system: KM12
LOX IMVI = test system: LOX IMVI
M14 = test system: M14
MCF7 = test system: MCF7
MDA-MB-231 = test system: MDA-MB-231
MDA-N = test system: MDA-N
MOLT-4 = test system: MOLT-4
Malme-3M = test system: Malme-3M
NCI-H23 = test system: NCI-H23
NCI-H460 = test system: NCI-H460
NCI/ADR-RES = test system: NCI/ADR-RES
OVCAR-3 = test system: OVCAR-3
OVCAR-4 = test system: OVCAR-4
OVCAR-5 = test system: OVCAR-5
OVCAR-8 = test system: OVCAR-8
PC-3 = test system: PC-3
RPMI-8226 = test system: RPMI-8226
SF-268 = test system: SF-268
SF-295 = test system: SF-295
SF-539 = test system: SF-539
SK-MEL-28 = test system: SK-MEL-28
SK-MEL-2 = test system: SK-MEL-2
SK-MEL-5 = test system: SK-MEL-5
SK-OV-3 = test system: SK-OV-3
SN12C = test system: SN12C
SNB-19 = test system: SNB-19
SNB-75 = test system: SNB-75
SR = test system: SR
SW-620 = test system: SW-620
T47D = test system: T47D
TK-10 = test system: TK-10
U-251 = test system: U-251
UACC-257 = test system: UACC-257
UO-31 = test system: UO-31
MDA-MB-435 = test system: MDA-MB-435
NCI-H226 = test system: NCI-H226
NCI-H522 = test system: NCI-H522
RXF 393 = test system: RXF 393
UACC-62 = test system: UACC-62

SMILES: CC1CN=C(N(C)C(=O)Nc2ccc(Cl)c(Cl)c2)S1 (configuration not stated)
- GI50 (786-0): 35.6 µM (inactive)
- GI50 (A498): 48.4 µM (inactive)
- GI50 (A549): 27.7 µM (inactive)
- GI50 (ACHN): 11 µM (inactive)
- GI50 (CAKI-1): 7.53 µM (inactive)
- GI50 (CCRF-CEM): 33.3 µM (inactive)
- GI50 (COLO 205): 40.8 µM (inactive)
- GI50 (DU-145): 44.8 µM (inactive)
- GI50 (EKVX): 32.4 µM (inactive)
- GI50 (HCC 2998): 38.6 µM (inactive)
- GI50 (HCT-116): 39 µM (inactive)
- GI50 (HCT-15): 21.3 µM
- GI50 (HL-60): 22.5 µM (inactive)
- GI50 (HOP-62): 21.8 µM (inactive)
- GI50 (HOP-92): 4.76 µM (inactive)
- GI50 (HT-29): 33 µM (inactive)
- GI50 (Hs-578T): 22.8 µM (inactive)
- GI50 (IGROV-1): 27.2 µM (inactive)
- GI50 (K562): 23.4 µM (inactive)
- GI50 (KM12): 32.4 µM (inactive)
- GI50 (LOX IMVI): 17.5 µM (inactive)
- GI50 (M14): 0.127 µM (active)
- GI50 (MCF7): 19.3 µM (inactive)
- GI50 (MDA-MB-231): 28.1 µM (inactive)
- GI50 (MDA-N): 31 µM (inactive)
- GI50 (MOLT-4): 27.9 µM (inactive)
- GI50 (Malme-3M): 46.5 µM (inactive)
- GI50 (NCI-H23): 32.3 µM (inactive)
- GI50 (NCI-H460): 36 µM (inactive)
- GI50 (NCI/ADR-RES): 14.4 µM (inactive)
- GI50 (OVCAR-3): 20.5 µM (inactive)
- GI50 (OVCAR-4): 36.6 µM (inactive)
- GI50 (OVCAR-5): 15.2 µM (inactive)
- GI50 (OVCAR-8): 27.2 µM (inactive)
- GI50 (PC-3): 27.4 µM (inactive)
- GI50 (RPMI-8226): 31.7 µM (inactive)
- GI50 (SF-268): 27.9 µM (inactive)
- GI50 (SF-295): 30.9 µM (inactive)
- GI50 (SF-539): 17.7 µM (inactive)
- GI50 (SK-MEL-28): 16.6 µM (inactive)
- GI50 (SK-MEL-2): 17.4 µM (inactive)
- GI50 (SK-MEL-5): 15.7 µM (inactive)
- GI50 (SK-OV-3): > 100 µM (inactive)
- GI50 (SN12C): 26.5 µM (inactive)
- GI50 (SNB-19): 80 µM (inactive)
- GI50 (SNB-75): 19.1 µM (inactive)
- GI50 (SR): 29.2 µM (inactive)
- GI50 (SW-620): 29.5 µM (inactive)
- GI50 (T47D): 19.3 µM (inactive)
- GI50 (TK-10): 26.8 µM (inactive)
- GI50 (U-251): 31.6 µM (inactive)
- GI50 (UACC-257): 26.9 µM (inactive)
- GI50 (UO-31): 29.5 µM (inactive)

SMILES: SC1=NC2=C(CSC/C2=C\c2cccc(Br)c2)C(c2cccc(Br)c2)N1 (configuration not stated)
- GI50 (786-0): 66.8 µM (inactive)
- GI50 (A498): > 100 µM (inactive)
- GI50 (A549): > 100 µM (inactive)
- GI50 (ACHN): > 100 µM (inactive)
- GI50 (CAKI-1): > 100 µM (inactive)
- GI50 (CCRF-CEM): 65.9 µM (inactive)
- GI50 (COLO 205): 36.2 µM (inactive)
- GI50 (DU-145): > 100 µM (inactive)
- GI50 (EKVX): 42.3 µM (inactive)
- GI50 (HCC 2998): > 100 µM (inactive)
- GI50 (HCT-116): 43.7 µM (inactive)
- GI50 (HCT-15): > 100 µM
- GI50 (HL-60): > 100 µM (inactive)
- GI50 (HOP-62): > 100 µM (inactive)
- GI50 (HT-29): 42.3 µM (inactive)
- GI50 (Hs-578T): > 100 µM (inactive)
- GI50 (IGROV-1): > 100 µM (inactive)
- GI50 (K562): 45.7 µM (inactive)
- GI50 (KM12): 88.5 µM (inactive)
- GI50 (LOX IMVI): > 100 µM (inactive)
- GI50 (M14): 46.2 µM (inactive)
- GI50 (MCF7): 64.1 µM (inactive)
- GI50 (MDA-MB-231): > 100 µM (inactive)
- GI50 (MDA-MB-435): 41.3 µM (inactive)
- GI50 (MDA-N): 68.2 µM (inactive)
- GI50 (MOLT-4): 38.7 µM (inactive)
- GI50 (Malme-3M): > 100 µM (inactive)
- GI50 (NCI-H226): > 100 µM (inactive)
- GI50 (NCI-H23): 63.4 µM (inactive)
- GI50 (NCI-H460): 55.6 µM (inactive)
- GI50 (NCI-H522): > 100 µM (inactive)
- GI50 (NCI/ADR-RES): 61.9 µM (inactive)
- GI50 (OVCAR-3): > 100 µM (inactive)
- GI50 (OVCAR-4): 93.5 µM (inactive)
- GI50 (OVCAR-5): > 100 µM (inactive)
- GI50 (OVCAR-8): > 100 µM (inactive)
- GI50 (PC-3): 46.7 µM (inactive)
- GI50 (RPMI-8226): 64.7 µM (inactive)
- GI50 (RXF 393): > 100 µM (inactive)
- GI50 (SF-268): > 100 µM (inactive)
- GI50 (SF-295): > 100 µM (inactive)
- GI50 (SF-539): > 100 µM (inactive)
- GI50 (SK-MEL-28): > 100 µM (inactive)
- GI50 (SK-MEL-2): > 100 µM (inactive)
- GI50 (SK-MEL-5): 30.3 µM (inactive)
- GI50 (SK-OV-3): > 100 µM (inactive)
- GI50 (SN12C): > 100 µM (inactive)
- GI50 (SNB-19): > 100 µM (inactive)
- GI50 (SNB-75): 41.6 µM (inactive)
- GI50 (SW-620): > 100 µM (inactive)
- GI50 (T47D): 25 µM (inactive)
- GI50 (TK-10): > 100 µM (inactive)
- GI50 (U-251): > 100 µM (inactive)
- GI50 (UACC-257): > 100 µM (inactive)
- GI50 (UACC-62): > 100 µM (inactive)

SMILES: COC1CC(COCc2ccccc2)CC(OC)O1 (configuration not stated)
- GI50 (786-0): > 100 µM (inactive)
- GI50 (A498): > 100 µM (inactive)
- GI50 (A549): > 100 µM (inactive)
- GI50 (ACHN): > 100 µM (inactive)
- GI50 (CAKI-1): > 100 µM (inactive)
- GI50 (CCRF-CEM): 0.0198 µM (active)
- GI50 (COLO 205): > 100 µM (inactive)
- GI50 (DU-145): > 100 µM (inactive)
- GI50 (EKVX): > 100 µM (inactive)
- GI50 (HCC 2998): > 100 µM (inactive)
- GI50 (HCT-116): > 100 µM (inactive)
- GI50 (HCT-15): > 100 µM
- GI50 (HL-60): < 0.01 µM (active)
- GI50 (HOP-62): > 100 µM (inactive)
- GI50 (HOP-92): > 100 µM (inactive)
- GI50 (HT-29): > 100 µM (inactive)
- GI50 (Hs-578T): > 100 µM (inactive)
- GI50 (K562): > 100 µM (inactive)
- GI50 (KM12): > 100 µM (inactive)
- GI50 (LOX IMVI): 64 µM (inactive)
- GI50 (M14): > 100 µM (inactive)
- GI50 (MCF7): > 100 µM (inactive)
- GI50 (MDA-MB-435): > 100 µM (inactive)
- GI50 (MDA-N): > 100 µM (inactive)
- GI50 (MOLT-4): > 100 µM (inactive)
- GI50 (NCI-H226): > 100 µM (inactive)
- GI50 (NCI-H23): > 100 µM (inactive)
- GI50 (NCI-H460): > 100 µM (inactive)
- GI50 (NCI-H522): > 100 µM (inactive)
- GI50 (NCI/ADR-RES): > 100 µM (inactive)
- GI50 (OVCAR-3): > 100 µM (inactive)
- GI50 (OVCAR-5): > 100 µM (inactive)
- GI50 (OVCAR-8): > 100 µM (inactive)
- GI50 (RPMI-8226): > 100 µM (inactive)
- GI50 (RXF 393): > 100 µM (inactive)
- GI50 (SF-268): > 100 µM (inactive)
- GI50 (SF-295): > 100 µM (inactive)
- GI50 (SF-539): > 100 µM (inactive)
- GI50 (SK-MEL-5): > 100 µM (inactive)
- GI50 (SK-OV-3): > 100 µM (inactive)
- GI50 (SN12C): > 100 µM (inactive)
- GI50 (SNB-75): > 100 µM (inactive)
- GI50 (SR): > 100 µM (inactive)
- GI50 (SW-620): > 100 µM (inactive)
- GI50 (T47D): > 100 µM (inactive)
- GI50 (TK-10): > 100 µM (inactive)
- GI50 (UACC-257): > 100 µM (inactive)
- GI50 (UACC-62): > 100 µM (inactive)
- GI50 (UO-31): > 100 µM (inactive)
